Patent publication US20240279220A1, “INDOLE COMPOUNDS AND METHODS OF USE” (Genzyme Corporation, priority 2021, published 2024)

Experiments:
CFTR = molecular target: T1, CFTR (Homo sapiens, UniProt P13569, DEL508-508); assay: TECC24 recording of CFTR-mediated transepithelial chloride transport in ΔF508 homozygous CF-HBE cells; assay type: cell-based; conditions: 10 μM test agent, 48 hours incubation, AUC of forskolin-stimulated IEQ divided by vehicle AUC, primary CF-HBE cells
T1 construct: Primary human bronchial epithelial cells from a ΔF508 homozygous CF donor; host or cells: primary human bronchial epithelial cells (CF-HBE), ΔF508 homozygous donor
T1 sequence (P13569 with tags, fused parts or gaps DEL508-508): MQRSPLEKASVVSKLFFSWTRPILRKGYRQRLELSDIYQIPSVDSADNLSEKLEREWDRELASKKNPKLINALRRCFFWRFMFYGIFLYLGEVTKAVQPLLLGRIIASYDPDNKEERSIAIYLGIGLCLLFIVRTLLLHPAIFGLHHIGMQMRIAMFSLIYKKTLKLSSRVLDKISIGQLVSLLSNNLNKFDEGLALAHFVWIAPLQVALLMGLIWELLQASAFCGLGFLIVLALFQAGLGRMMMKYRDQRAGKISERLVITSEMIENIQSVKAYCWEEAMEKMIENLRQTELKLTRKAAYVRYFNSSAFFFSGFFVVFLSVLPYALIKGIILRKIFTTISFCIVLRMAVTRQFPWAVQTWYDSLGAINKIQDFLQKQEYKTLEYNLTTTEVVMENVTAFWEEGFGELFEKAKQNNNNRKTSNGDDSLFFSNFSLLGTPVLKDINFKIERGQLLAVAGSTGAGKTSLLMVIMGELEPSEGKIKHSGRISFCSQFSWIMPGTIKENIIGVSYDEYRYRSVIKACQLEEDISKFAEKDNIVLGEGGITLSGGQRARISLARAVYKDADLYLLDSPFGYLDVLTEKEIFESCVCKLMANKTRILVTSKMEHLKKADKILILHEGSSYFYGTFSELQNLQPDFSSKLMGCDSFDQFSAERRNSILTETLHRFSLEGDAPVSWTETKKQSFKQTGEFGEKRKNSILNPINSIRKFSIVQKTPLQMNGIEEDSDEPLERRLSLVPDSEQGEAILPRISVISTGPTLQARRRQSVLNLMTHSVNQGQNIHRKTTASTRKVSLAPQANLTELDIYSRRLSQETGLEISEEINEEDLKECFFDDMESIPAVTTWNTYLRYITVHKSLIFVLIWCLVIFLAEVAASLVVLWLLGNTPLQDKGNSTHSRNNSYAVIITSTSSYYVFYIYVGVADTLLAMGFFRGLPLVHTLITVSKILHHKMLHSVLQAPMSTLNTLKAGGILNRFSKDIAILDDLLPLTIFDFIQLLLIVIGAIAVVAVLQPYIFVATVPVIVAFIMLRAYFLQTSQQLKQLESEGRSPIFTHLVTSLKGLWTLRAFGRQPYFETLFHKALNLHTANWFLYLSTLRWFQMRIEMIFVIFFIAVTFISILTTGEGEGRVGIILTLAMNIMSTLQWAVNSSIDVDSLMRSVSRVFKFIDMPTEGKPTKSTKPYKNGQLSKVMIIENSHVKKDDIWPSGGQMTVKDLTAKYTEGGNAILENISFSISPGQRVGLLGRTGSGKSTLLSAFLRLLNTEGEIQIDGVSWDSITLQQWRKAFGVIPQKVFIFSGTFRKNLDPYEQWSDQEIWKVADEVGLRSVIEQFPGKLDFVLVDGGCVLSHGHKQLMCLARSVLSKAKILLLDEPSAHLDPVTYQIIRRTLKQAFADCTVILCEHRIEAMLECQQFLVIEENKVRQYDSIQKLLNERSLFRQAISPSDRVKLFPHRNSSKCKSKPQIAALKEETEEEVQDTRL
Method: The effects of a test agent on CFTR-mediated transepithelial chloride transport was measured using TECC24 recording analysis. Test agents were solubilized in DMSO. Solubilized test agents were mixed with incubation medium containing DMEM/F12, Ultroser G (2%; Crescent Chemical, catalog #67042), Hyclone Fetal Clone II (2%; GE Healthcare, catalog #SH30066.02), bovine brain extract (0.25%; Lonza, catalog #CC-4098), insulin (2.5 μg/mL), IL-13 (10 ng/mL), hydrocortisone (20 nM), transferrin (2.5 μg/mL), triiodothyronine (500 nM), ethanolamine (250 nM), epinephrine (1.5 μM), phosphoethanolamine (250 nM), and retinoic acid (10 nM). Primary human bronchial epithelial cells from a ΔF508 homozygous CF donor (CF-HBE cells; from University of North Carolina Cystic Fibrosis Tissue Procurement Center), grown on Transwell HTS 24-well cell culture inserts (Costar, catalog #3378), were exposed to test agents or controls dissolved in incubation medium. The CF-HBE cells were cultured at 36.5° C. for 48 hours before TECC24 recordings were performed in the presence or absence of test agent, a positive control or vehicle (DMSO).
Following incubation, the transwell cell culture inserts containing the test agent or control-treated CF-HBE cells were loaded onto a TECC24 apparatus (TECC v7 or MTECC v2; EP Design) to record the transepithelial voltage (VT) and resistance (TEER) using 4 AgCl electrodes per well configured in current-clamp mode. The apical and basolateral bath solutions both contained (in mM) 140 NaCl, 5 KCl, 2 CaCl2, 1 MgCl2, 10 Hepes, and 10 glucose (adjusted to pH 7.4 with NaOH). To inhibit basal Na+ absorption, the ENaC inhibitor benzamil (10 μM) was added to the bath. Then, the adenylate cyclase activator, forskolin (10 μM), was added to the bath to activate CFTR. The forskolin-stimulated Cl— transport was halted by addition of CFTR inhibitor-172 (20 μM) to the bath at the end of the experiment to confirm specificity. VT and TEER recordings were digitally acquired at routine intervals using TECC or MTECC software (EP Design). VT and TEER were transformed into equivalent transpeithelial Cl— current (IEQ), and the Area Under the Curve (AUC) of the IEQ timecourse between forskolin and CFTR inhibitor-172 addition is generated using Excel (Microsoft). Efficacy is expressed as the ratio of the test agent AUC divided by vehicle AUC. EC50s based on AUC are generated using the non-linear regression log(agonist) vs. response function in Prism software (Graphpad) with HillSlope fixed=1.
If a test agent increased the AUC of the forskolin-stimulated IEQ relative to vehicle in CF-HBE cells, and this increase was inhibited by CFTR inhibitor-172, then the test agent was considered a CFTR corrector.

NBD1/3D = assay: Aggregation analysis using differential static light scattering (DSLS), NBD1 thermal stability; assay type: binding, Human; conditions: ΔTagg versus DMSO control; compound at 100 μM
Outline: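 Purified NBD1 at 0.2 mg/ml in S200 buffer (pH 7.6, 2 mM ATP, 5 mM MgCl2, 1% glycerol) was heated with compound at 1 °C/min to 70 °C. Tagg taken from the light-scattering curve inflection point; ΔTagg = compound Tagg minus mean DMSO control Tagg.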

TECC24 @ 10 μM over DMSO (AUC fold over DMSO) (CFTR)	Compound	DSLS NBD1/3D Human Stability delta-T (° C.) @ 100 (μM) (NBD1/3D)
C (“C” refers to AUC @ 10 uM <= 4)	CP(C)(=O)c1c(Oc2cccc(-c3nc(C(O)c4cccc(CCC(=O)O)c4)cs3)c2)c(F)cc2[nH]ccc12 (stereo not shown) [Example 97, 3-(3-((2-(3-((4-(Dimethylphosphoryl)-6-fluoro-1H-indol-5-yl)oxy)phenyl)thiazol-4-yl)(hydroxy)methyl)phenyl)propanoic acid]	B (B: 5-10° C.)
C (“C” refers to AUC @ 10 uM <= 4)	Cc1c(Oc2ccc(F)c(-c3ncc(Cc4cccc(CCC(=O)O)c4F)[nH]3)c2)c(F)cc2[nH]ccc12 [Example 119, 3-(2-fluoro-3-((2-(2-fluoro-5-((6-fluoro-4-methyl-1H-indol-5-yl)oxy)phenyl)-1H-imidazol-5-yl)methyl)phenyl)propanoic acid]	B (B: 5-10° C.)
A (“A” refers to AUC @10 uM >= 12)	O=C(O)CCc1cccc(Cc2cnc(-c3cc(Oc4c(F)c(F)c5[nH]ccc5c4F)ccc3F)[nH]2)c1F [Example 121, 3-(2-fluoro-3-((2-(2-fluoro-5-((4,6,7-trifluoro-1H-indol-5-yl)oxy)phenyl)-1H-imidazol-5-yl)methyl)phenyl)propanoic acid]	B (B: 5-10° C.)
A (“A” refers to AUC @10 uM >= 12)	O=C(O)CCc1cccc(Cc2cnc(-c3cc(Oc4c(F)cc5[nH]ccc5c4CC4CCCS4(=O)=O)ccc3F)[nH]2)c1F (stereo not shown) [Example 125, 3-(3-((2-(5-((4-((1,1-dioxidotetrahydrothiophen-2-yl)methyl)-6-fluoro-1H-indol-5-yl)oxy)-2-fluorophenyl)-1H-imidazol-5-yl)methyl)-2-fluorophenyl)propanoic acid]	A (A: T ≥ 10° C.)
C (“C” refers to AUC @ 10 uM <= 4)	CNC(=O)c1c(Oc2ccc(F)c(-c3ncc(Cc4cccc(CCC(=O)O)c4)[nH]3)c2)c(F)cc2[nH]ccc12 [Example 140, 3-(3-((2-(2-Fluoro-5-((6-fluoro-4-(methylcarbamoyl)-1H-indol-5-yl)oxy)phenyl)-1H-imidazol-5-yl)methyl)phenyl)propanoic acid]	B (B: 5-10° C.)
C (“C” refers to AUC @ 10 uM <= 4)	O=C(O)CCc1cccc(C2(c3cnc(-c4cc(Oc5c(F)c(F)c6[nH]ccc6c5F)ccc4F)[nH]3)CCOCC2)c1 [Example 167, 3-(3-(4-(2-(2-fluoro-5-((4,6,7-trifluoro-1H-indol-5-yl)oxy)phenyl)-1H-imidazol-4-yl)tetrahydro-2H-pyran-4-yl)phenyl)propanoic acid]	A (A: T ≥ 10° C.)
C (“C” refers to AUC @ 10 uM <= 4)	O=C(O)CCc1cccc(C2(c3cnc(-c4cc(Oc5c(F)cc6[nH]ccc6c5CC(F)(F)F)ccc4F)[nH]3)CCS(=O)(=O)CC2)c1 [Example 170, 3-(3-(4-(2-(2-fluoro-5-((6-fluoro-4-(2,2,2-trifluoroethyl)-1H-indol-5-yl)oxy)phenyl)-1H-imidazol-5-yl)-1,1-dioxidotetrahydro-2H-thiopyran-4-yl)phenyl)propanoic acid]	B (B: 5-10° C.)
C (“C” refers to AUC @ 10 uM <= 4)	COCC(COC)(c1cccc(CCC(=O)O)c1)c1cnc(-c2cc(Oc3c(F)cc4[nH]ccc4c3F)ccc2F)[nH]1 [Example 171, 3-(3-(2-(2-(5-((4,6-Difluoro-1H-indol-5-yl)oxy)-2-fluorophenyl)-1H-imidazol-5-yl)-1,3-dimethoxypropan-2-yl)phenyl)propanoic acid]	A (A: T ≥ 10° C.)
C (“C” refers to AUC @ 10 uM <= 4)	CC(O)(c1cccc(CCC(=O)O)c1)c1c[nH]c(-c2cc(C(=O)c3ccc4[nH]ccc4c3)ccc2F)n1 (stereo not shown) [Example 194, 3-(3-(1-(2-(2-fluoro-5-(1H-indole-5-carbonyl)phenyl)-1H-imidazol-4-yl)-1-hydroxyethyl)phenyl) propanoic acid]	B (B: 5-10° C.)
C (“C” refers to AUC @ 10 uM <= 4)	Cc1c(Oc2cc(-c3ncc(C(C)(O)c4cccc(CCC(=O)O)c4)[nH]3)c(F)cc2F)c(F)cc2[nH]ccc12 (stereo not shown) [Example 206, 3-(3-(1-(2-(2,4-difluoro-5-((6-fluoro-4-methyl-1H-indol-5-yl)oxy)phenyl)-1H-imidazol-5-yl)-1-hydroxyethyl)phenyl) propanoic acid]	B (B: 5-10° C.)

Compound	TECC24 @ 10 μM over DMSO (AUC fold over DMSO) (CFTR)	DSLS NBD1/3D Human Stability delta-T (° C.) @ 100 (μM) (NBD1/3D)
O=C(O)CCc1cccc(Cc2c[nH]c(-c3cc(Oc4c(F)cc5[nH]ccc5c4F)ccc3F)n2)c1 [Example 118, 3-(3-((2-(5-((4,6-difluoro-1H-indol-5-yl)oxy)-2-fluorophenyl)-1H-imidazol-4-yl)methyl)phenyl)propanoic acid]	B (“B” refers to AUC @10 uM between 4-12)	B (B: 5-10° C.)
O=C(O)CCc1cccc(Cc2cnc(-c3cc(Oc4c(F)c(F)c5[nH]ccc5c4F)ccc3F)[nH]2)c1 [Example 123, 3-(3-((2-(2-fluoro-5-((4,6,7-trifluoro-1H-indol-5-yl)oxy)phenyl)-1H-imidazol-5-yl)methyl)phenyl)propanoic acid]	B (“B” refers to AUC @10 uM between 4-12)	B (B: 5-10° C.)
O=C(O)CCc1cc(F)cc(Cc2cnc(-c3cc(Oc4c(F)cc5[nH]ccc5c4F)ccc3F)[nH]2)c1F [Example 124, 3-(3-((2-(5-((4,6-difluoro-1H-indol-5-yl)oxy)-2-fluorophenyl)-1H-imidazol-5-yl)methyl)-2,5-difluorophenyl)propanoic acid]	B (“B” refers to AUC @10 uM between 4-12)	B (B: 5-10° C.)
CS(=O)(=O)CCc1c(Oc2ccc(F)c(-c3ncc(Cc4cccc(CCC(=O)O)c4F)[nH]3)c2)c(F)cc2[nH]ccc12 [Example 126, 3-(2-fluoro-3-((2-(2-fluoro-5-((6-fluoro-4-(2-(methylsulfonyl)ethyl)-1H-indol-5-yl)oxy)phenyl)-1H-imidazol-5-yl)methyl)phenyl)propanoic acid]	B (“B” refers to AUC @10 uM between 4-12)	A (A: T ≥ 10° C.)
CCC(CC)(c1cccc(CCC(=O)O)c1)c1cnc(-c2cc(Oc3c(F)cc4[nH]ccc4c3C)ccc2F)[nH]1 [Example 159, 3-(3-(3-(2-(2-fluoro-5-((6-fluoro-4-methyl-1H-indol-5-yl)oxy)phenyl)-1H-imidazol-5-yl)pentan-3-yl)phenyl)propanoic acid]	B (“B” refers to AUC @10 uM between 4-12)	B (B: 5-10° C.)
O=C(O)CCc1cccc(C2(c3cnc(-c4cc(Oc5c(F)cc6[nH]ccc6c5F)ccc4F)[nH]3)CCN(CC(F)(F)F)CC2)c1 [Example 169, 3-(3-(4-(2-(5-((4,6-difluoro-1H-indol-5-yl)oxy)-2-fluorophenyl)-1H-imidazol-5-yl)-1-(2,2,2-trifluoroethyl)piperidin-4-yl)phenyl)propanoic acid]	C (“C” refers to AUC @ 10 uM <= 4)	B (B: 5-10° C.)
CC(O)(c1cccc(CCC(=O)O)c1)c1cnc(-c2cc(Oc3c(F)c(F)c4[nH]ccc4c3C3CC3)ccc2F)[nH]1 (stereo not shown) [Example 205, 3-(3-(1-(2-(5-((4-cyclopropyl-6,7-difluoro-1H-indol-5-yl)oxy)-2-fluorophenyl)-1H-imidazol-5-yl)-1-hydroxyethyl)phenyl) propanoic acid]	B (“B” refers to AUC @10 uM between 4-12)	B (B: 5-10° C.)
